Measurements as given in PMC6893700 (Viruses, 2019).
Where two headings read alike, the source gives them in different places.

Key:
ZIKV strain PAN2016 [1] = test: Plaque reduction inhibition assay, ZIKV PAN2016 in Vero E6 cells; assay type: cell-based; conditions: Zika virus, Vero C1008, Vero E6 cells; for IC50: plaque reduction, read-out: IC50 PAN2016
ZIKV strain R116265 = test: Plaque reduction inhibition assay, ZIKV R116265 in Vero E6 cells; assay type: cell-based; conditions: Zika virus, Vero C1008
ZIKV strain PAN2015 = test: Plaque reduction inhibition assay, ZIKV PAN2015 in Vero E6 cells; assay type: cell-based; conditions: Zika virus, Vero C1008
ZIKV strain FLR [2] = test: Plaque reduction inhibition assay, ZIKV FLR in Vero E6 cells; assay type: cell-based; conditions: Zika virus, Vero C1008; plaque reduction, Vero E6 cells; read-out: IC50 FLR
ZIKV strain PRVABC59 [3] = test: Plaque reduction inhibition assay, ZIKV PRVABC59 in Vero E6 cells; assay type: cell-based; conditions: Zika virus, Vero C1008; plaque reduction, Vero E6 cells
ZIKV strain PLCal_ZV = test: Plaque reduction inhibition assay, ZIKV PLCal_ZV in Vero E6 cells; assay type: cell-based; conditions: Zika virus, Vero C1008; plaque reduction, Vero E6 cells; read-out: IC50 PLCal_ZV
ZIKV strain IbH 30656 = test: Plaque reduction inhibition assay, ZIKV IbH 30656 in Vero E6 cells; assay type: cell-based; conditions: Zika virus, Vero C1008; plaque reduction, Vero E6 cells; read-out: IC50 IbH 30656
[4] = system: ZIKV mosquito strain MEX 2–81; test: Plaque reduction inhibition assay, ZIKV MEX 2–81 in Vero E6 cells; assay type: cell-based; conditions: Zika virus, Vero C1008; plaque reduction, Vero E6 cells; read-out: IC50 MEX 2–81
[5] = system: ZIKV rhesus macaque strain MR 766; test: Plaque reduction inhibition assay, ZIKV MR 766 in Vero E6 cells; assay type: cell-based; conditions: Zika virus, Vero C1008, in Macaca mulatta; plaque reduction, Vero E6 cells; read-out: IC50 MR 766
[6] = target: ZIKV full-length E protein (Zika virus, UniProt A0A024B7W1); assay type: binding; conditions: ELISA
[7] = target: T1, ZIKV envelope protein domain III (EDIII) protein (Zika virus, UniProt A0A024B7W1); assay type: binding
T1 construct: E residues 298–409 fused with a C-terminal human Fc; made in house

ZIKV strain PAN2016 [8] = assay type: cell-based, Zika virus (ZIKV); conditions: for IC50: Zika virus, Vero C1008, ZIKV PAN2016, Vero E6, natural product without combination, read-out: IC50 Alone
ZIKV strain FLR [9] = assay type: cell-based, Zika virus (ZIKV); conditions: ZIKV FLR; for IC50: Zika virus, Vero C1008, Vero E6, natural product without combination, read-out: IC50 Alone
ZIKV strain PRVABC59 [10] = assay type: cell-based, Zika virus (ZIKV); conditions: for IC50: Zika virus, Vero C1008, ZIKV PRVABC59, Vero E6, natural product without combination, read-out: IC50 Alone
in vitro [11] = conditions: African green monkey
in vitro [12] = conditions: African green monkey; remark: listed apart in the source
ZIKV strain R103451 = test: Plaque reduction inhibition assay, ZIKV R103451 in Vero E6 cells; assay type: cell-based; conditions: Zika virus, Vero C1008; plaque reduction, Vero E6 cells; read-out: IC50 R103451
DENV-1-V1792 = test: Plaque reduction inhibition assay, DENV-1 in LLC-MK2 cells; assay type: cell-based; conditions: Dengue virus, DENV1
DENV-2-V594 = test: Plaque reduction inhibition assay, DENV-2 in LLC-MK2 cells; assay type: cell-based; conditions: Dengue virus, DENV2
DENV-3-V1043 = test: Plaque reduction inhibition assay, DENV-3 in LLC-MK2 cells; assay type: cell-based; conditions: Dengue virus, DENV3
DENV-4-PR 06-65-740 = test: Plaque reduction inhibition assay, DENV-4 in LLC-MK2 cells; assay type: cell-based; conditions: Dengue virus, DENV4
ZIKV (PAN2016) = test: Time-of-addition experiment, ZIKV PAN2016 in Vero E6 cells; assay type: cell-based, Zika virus (ZIKV); conditions: for inhibition at 30 µM: Zika virus, Vero C1008, 1 h
Vero E6 cells [13] = system: Vero E6 cells
in vitro [14] = conditions: rhesus monkey
Vero E6 cells [15] = test: Combinatorial cytotoxicity of gossypol with other natural products, CCK8; conditions: Vero E6; (CC50 alone)/(CC50 in the mixture)—1

T1 sequence (A0A024B7W1 588-699): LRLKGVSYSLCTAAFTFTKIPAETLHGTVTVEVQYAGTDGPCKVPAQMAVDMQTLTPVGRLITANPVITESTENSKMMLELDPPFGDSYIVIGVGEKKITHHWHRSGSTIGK
Chain of ZIKV full-length E protein (A0A024B7W1 291-794): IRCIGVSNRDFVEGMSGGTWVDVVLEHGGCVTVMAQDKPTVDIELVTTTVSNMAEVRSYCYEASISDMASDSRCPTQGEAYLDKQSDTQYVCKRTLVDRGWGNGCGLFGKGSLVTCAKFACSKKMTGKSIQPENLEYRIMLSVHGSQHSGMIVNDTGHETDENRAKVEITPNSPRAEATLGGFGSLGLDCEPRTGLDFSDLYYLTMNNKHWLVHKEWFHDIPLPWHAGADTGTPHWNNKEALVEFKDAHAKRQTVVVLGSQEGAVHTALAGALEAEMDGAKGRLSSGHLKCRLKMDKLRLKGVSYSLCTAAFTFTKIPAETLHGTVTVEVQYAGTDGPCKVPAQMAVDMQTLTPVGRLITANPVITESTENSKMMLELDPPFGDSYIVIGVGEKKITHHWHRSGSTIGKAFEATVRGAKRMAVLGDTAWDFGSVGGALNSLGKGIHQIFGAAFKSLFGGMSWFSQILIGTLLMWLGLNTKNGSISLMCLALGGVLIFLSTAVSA

## CC(C)C[C@H](NC(=O)[C@H](Cc1ccccc1)NC(=O)c1cnccn1)B(O)O [Bortezomib, bortezomib, reference compound]
ZIKV strain PAN2016 [1]
  IC50: 9.75 ± 0.03 µM
ZIKV strain R116265
  IC50: 8.94 ± 0.1 µM
ZIKV strain PAN2015
  IC50: 9.88 ± 0.12 µM
ZIKV strain FLR [2]
  IC50: 9.62 ± 0.59 µM
ZIKV strain PRVABC59 [3]
  IC50: 11.7 ± 0.82 µM
ZIKV strain PLCal_ZV
  IC50: 31 ± 0.71 µM
ZIKV strain IbH 30656
  IC50: 9.35 ± 0.23 µM
[4]
  IC50: 7.67 ± 0.31 µM
[5]
  IC50: 9.51 ± 0.26 µM
[6]
  binding to ZIKV full-length E protein (in words): did not bind
[7]; ELISA
  binding to ZIKV EDIII protein (in words): did not bind
ZIKV strain PAN2016 [8]
  IC50: 10.65 ± 0.01 µM
ZIKV strain FLR [9]
  IC50: 9.7 ± 0.76 µM
ZIKV strain PRVABC59 [10]
  IC50: 12.17 ± 0.07 µM
In vitro [11]
  CC50 at 3 days: 17 ± 0.2 µM
In vitro [12]
  CC50 at 3 days: 17.77 ± 0.17 µM

## C[C@H]1[C@H]2CC[C@H]3[C@@H]4CC=C5C[C@@H](N(C)C)CC[C@]5(C)[C@H]4CC[C@]23CN1C [Conessine, conessine]
ZIKV strain PAN2016 [1]; 90% plaque reduction, read-out: IC90 against ZIKV PAN2016 strain
  IC90: ~31.8 µM
ZIKV strain PAN2016 [1]
  IC50: 9.75 ± 0.26 µM
ZIKV strain R116265
  IC50: 7.18 ± 0.13 µM
ZIKV strain PAN2015
  IC50: 7.98 ± 0.29 µM
ZIKV strain FLR [2]
  IC50: 9.65 ± 0.58 µM
ZIKV strain R103451
  IC50: 11.6 ± 0.33 µM
ZIKV strain PRVABC59 [3]
  IC50: 9.08 ± 0.33 µM
ZIKV strain PLCal_ZV
  IC50: 8.11 ± 0.37 µM
ZIKV strain IbH 30656
  IC50: 10.2 ± 0.41 µM
[4]
  IC50: 10.94 ± 0.06 µM
[5]
  IC50: 7.44 ± 0.11 µM
DENV-1-V1792
  IC50: 7.09 ± 0.08 µM
DENV-2-V594
  IC50: 6.61 ± 0.6 µM
DENV-3-V1043
  IC50: 7.41 ± 0.04 µM
DENV-4-PR 06-65-740
  IC50: 7.27 ± 0.31 µM
ZIKV (PAN2016); read-out: inhibition of ZIKV infection, step d: cotreatment at 37 °C
  inhibition at 30 µM: 80 to 96%
ZIKV (PAN2016); read-out: inhibition of ZIKV infection, step e: penetration (membrane fusion)
  inhibition at 30 µM: 80 to 96%
ZIKV (PAN2016); read-out: inhibition of ZIKV infection, step f: postentry stage
  inhibition at 30 µM: 80 to 96%
ZIKV (PAN2016); cells, ZIKV and natural product 4 °C 1 h, gossypol 15 µM, curcumin 30 µM, digitonin 7.5 µM, conessine 30 µM
  inhibition of ZIKV infection, step c: cotreatment at 4 °C (attachment): very low to no effect
ZIKV (PAN2016); natural product with ZIKV 37 °C 1 h before cells, gossypol 15 µM, curcumin 30 µM, digitonin 7.5 µM, conessine 30 µM
  inhibition of ZIKV infection, step a: pretreatment of ZIKV: very low to no effect
[6]
  binding to ZIKV full-length E protein (in words): did not bind
[7]
  binding to ZIKV EDIII protein (in words): did not bind
ZIKV strain PAN2016 [8]; ZIKV PAN2016, (IC50 alone)/(IC50 in the mixture)—1
  Fold of Enhancement (natural product with gossypol): 3.44
ZIKV strain PAN2016 [8]; ZIKV PAN2016, CI < 1 synergy
  CI (combination index) of gossypol with the named natural product: 0.44
ZIKV strain PAN2016 [8]
  IC50: 10 ± 0.25 µM
ZIKV strain FLR [9]; (IC50 alone)/(IC50 in the mixture)—1
  Fold of Enhancement (natural product with gossypol): 1.13
ZIKV strain FLR [9]; CI < 1 synergy
  CI (combination index) of gossypol with the named natural product: 0.85
ZIKV strain FLR [9]
  IC50: 10.1 ± 0.45 µM
ZIKV strain PRVABC59 [10]; ZIKV PRVABC59, (IC50 alone)/(IC50 in the mixture)—1
  Fold of Enhancement (natural product with gossypol): 6.29
ZIKV strain PRVABC59 [10]; ZIKV PRVABC59, CI < 1 synergy
  CI (combination index) of gossypol with the named natural product: 0.28
ZIKV strain PRVABC59 [10]
  IC50: 9.4 ± 0.21 µM
Vero E6 cells [13]
  cytotoxicity in Vero E6 cells observed under a microscope: no obvious cytotoxicity
In vitro [11]
  CC50 at 3 days: 323.71 ± 0.25 µM
In vitro [14]
  CC50 at 3 days: 303 ± 13.4 µM
In vitro [12]
  CC50 at 3 days: 314.6 ± 2.32 µM
Vero E6 cells [15]
  Fold of Enhancement of cytotoxicity (natural product with gossypol): ~5.78
